Assay results published in ChEMBL document CHEMBL6109052, “Overview of the epigenetic/cytotoxic dual-target inhibitors for cancer therapy” (Eur J Med Chem, 2025).
pIC50: −log10 of the molar value.

How the values were obtained:
[1] = target: T1, Protein deacetylase HDAC6 (Homo sapiens, UniProt Q9UBN7); test: Inhibition of HDAC6 (unknown origin)
T1 sequence (Q9UBN7 whole entry): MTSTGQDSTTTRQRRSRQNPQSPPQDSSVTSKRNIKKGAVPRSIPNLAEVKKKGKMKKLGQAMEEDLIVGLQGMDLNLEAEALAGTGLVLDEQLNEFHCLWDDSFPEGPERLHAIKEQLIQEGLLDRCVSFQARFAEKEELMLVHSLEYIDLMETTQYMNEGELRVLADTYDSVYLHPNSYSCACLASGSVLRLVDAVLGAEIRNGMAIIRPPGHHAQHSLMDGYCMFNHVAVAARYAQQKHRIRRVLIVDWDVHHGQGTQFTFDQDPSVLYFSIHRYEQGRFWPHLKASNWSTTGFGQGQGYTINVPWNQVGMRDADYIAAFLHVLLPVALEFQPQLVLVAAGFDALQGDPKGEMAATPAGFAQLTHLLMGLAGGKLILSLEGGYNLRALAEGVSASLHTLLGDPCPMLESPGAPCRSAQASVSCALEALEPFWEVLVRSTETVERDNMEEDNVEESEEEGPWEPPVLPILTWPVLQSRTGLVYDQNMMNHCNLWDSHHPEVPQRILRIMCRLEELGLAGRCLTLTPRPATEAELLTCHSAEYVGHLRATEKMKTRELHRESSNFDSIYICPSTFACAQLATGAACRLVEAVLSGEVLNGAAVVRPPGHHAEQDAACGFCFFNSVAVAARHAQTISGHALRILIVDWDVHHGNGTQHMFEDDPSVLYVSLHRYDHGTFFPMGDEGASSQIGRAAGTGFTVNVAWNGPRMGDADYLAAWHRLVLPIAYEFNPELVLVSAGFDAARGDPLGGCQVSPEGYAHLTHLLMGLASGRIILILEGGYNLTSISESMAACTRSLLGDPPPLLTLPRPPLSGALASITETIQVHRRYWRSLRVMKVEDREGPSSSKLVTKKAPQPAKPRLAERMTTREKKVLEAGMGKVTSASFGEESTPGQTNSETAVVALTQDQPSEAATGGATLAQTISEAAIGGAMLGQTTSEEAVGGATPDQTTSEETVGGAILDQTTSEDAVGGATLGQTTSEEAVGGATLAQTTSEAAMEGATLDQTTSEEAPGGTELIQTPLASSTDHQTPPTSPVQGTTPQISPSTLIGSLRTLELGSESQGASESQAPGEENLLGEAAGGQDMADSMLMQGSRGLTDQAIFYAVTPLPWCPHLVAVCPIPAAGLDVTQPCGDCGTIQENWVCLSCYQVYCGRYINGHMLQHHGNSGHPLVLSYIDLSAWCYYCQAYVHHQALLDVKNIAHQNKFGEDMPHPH

Histone deacetylase 1 [2] = target: T2, Histone deacetylase 1 (Homo sapiens, UniProt Q13547); test: Inhibition of HDAC1 (unknown origin)
T2 sequence (Q13547 whole entry): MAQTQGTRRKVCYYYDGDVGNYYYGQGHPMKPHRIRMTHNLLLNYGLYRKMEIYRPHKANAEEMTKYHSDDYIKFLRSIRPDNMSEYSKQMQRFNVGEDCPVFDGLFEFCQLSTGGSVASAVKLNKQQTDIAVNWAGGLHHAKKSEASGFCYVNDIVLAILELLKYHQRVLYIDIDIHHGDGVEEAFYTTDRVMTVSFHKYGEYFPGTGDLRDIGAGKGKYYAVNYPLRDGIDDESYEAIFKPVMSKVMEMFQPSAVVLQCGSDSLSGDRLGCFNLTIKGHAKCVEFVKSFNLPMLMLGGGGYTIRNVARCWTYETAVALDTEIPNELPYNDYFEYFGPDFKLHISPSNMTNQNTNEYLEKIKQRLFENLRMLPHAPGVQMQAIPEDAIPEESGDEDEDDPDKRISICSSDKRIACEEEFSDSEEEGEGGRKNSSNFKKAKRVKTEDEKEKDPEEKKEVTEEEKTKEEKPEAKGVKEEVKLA

Histone deacetylase 2 = Histone deacetylase 2 (Homo sapiens, UniProt Q92769); test: Inhibition of HDAC2 (unknown origin)
Chain of Histone deacetylase 2 (Q92769 whole entry): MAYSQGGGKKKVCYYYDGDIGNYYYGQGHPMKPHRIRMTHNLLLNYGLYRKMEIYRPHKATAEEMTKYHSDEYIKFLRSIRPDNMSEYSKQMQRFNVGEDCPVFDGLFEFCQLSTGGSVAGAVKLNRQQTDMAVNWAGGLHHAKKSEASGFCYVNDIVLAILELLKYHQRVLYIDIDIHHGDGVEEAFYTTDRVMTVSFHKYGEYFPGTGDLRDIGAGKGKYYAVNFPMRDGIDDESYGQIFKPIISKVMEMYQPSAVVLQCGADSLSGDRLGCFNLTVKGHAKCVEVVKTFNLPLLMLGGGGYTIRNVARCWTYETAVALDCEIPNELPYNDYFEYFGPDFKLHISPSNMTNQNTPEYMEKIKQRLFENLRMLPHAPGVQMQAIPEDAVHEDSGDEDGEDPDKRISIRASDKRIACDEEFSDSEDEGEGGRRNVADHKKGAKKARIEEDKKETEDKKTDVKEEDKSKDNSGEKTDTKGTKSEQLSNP

Histone deacetylase 4 = Histone deacetylase 4 (Homo sapiens, UniProt P56524); test: Inhibition of HDAC4 (unknown origin)
Chain of Histone deacetylase 4 (P56524 whole entry): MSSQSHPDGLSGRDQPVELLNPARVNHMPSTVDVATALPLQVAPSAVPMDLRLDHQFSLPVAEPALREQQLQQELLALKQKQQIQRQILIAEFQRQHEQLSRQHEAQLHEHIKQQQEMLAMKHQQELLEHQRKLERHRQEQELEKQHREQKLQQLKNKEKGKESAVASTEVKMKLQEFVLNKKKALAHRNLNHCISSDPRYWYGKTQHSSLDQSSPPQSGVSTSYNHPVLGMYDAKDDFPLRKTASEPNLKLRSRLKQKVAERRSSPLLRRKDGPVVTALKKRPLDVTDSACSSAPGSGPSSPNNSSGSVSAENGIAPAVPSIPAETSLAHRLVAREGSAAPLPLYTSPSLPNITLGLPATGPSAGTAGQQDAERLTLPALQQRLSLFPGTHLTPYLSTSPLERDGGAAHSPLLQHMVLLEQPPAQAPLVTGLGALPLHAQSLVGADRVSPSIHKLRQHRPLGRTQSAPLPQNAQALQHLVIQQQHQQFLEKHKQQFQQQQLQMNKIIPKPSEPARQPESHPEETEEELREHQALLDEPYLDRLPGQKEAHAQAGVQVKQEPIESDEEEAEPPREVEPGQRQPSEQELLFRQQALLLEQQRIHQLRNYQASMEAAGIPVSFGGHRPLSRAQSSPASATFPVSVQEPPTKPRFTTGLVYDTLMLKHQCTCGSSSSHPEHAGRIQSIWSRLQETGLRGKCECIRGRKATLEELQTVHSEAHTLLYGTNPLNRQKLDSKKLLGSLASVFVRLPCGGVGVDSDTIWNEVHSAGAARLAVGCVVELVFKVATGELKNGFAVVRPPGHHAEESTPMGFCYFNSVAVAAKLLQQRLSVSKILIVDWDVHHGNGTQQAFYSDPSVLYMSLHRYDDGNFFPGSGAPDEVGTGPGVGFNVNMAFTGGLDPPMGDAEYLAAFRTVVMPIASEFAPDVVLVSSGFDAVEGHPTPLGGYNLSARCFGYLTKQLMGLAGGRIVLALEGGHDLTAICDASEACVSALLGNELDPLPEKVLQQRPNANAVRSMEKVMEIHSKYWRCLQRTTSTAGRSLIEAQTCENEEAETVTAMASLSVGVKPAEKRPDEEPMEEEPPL

Histone deacetylase 5 = Histone deacetylase 5 (Homo sapiens, UniProt Q9UQL6); test: Inhibition of HDAC5 (unknown origin)
Histone deacetylase 3 = Histone deacetylase 3 (Homo sapiens, UniProt O15379); test: Inhibition of HDAC3 (unknown origin)
Chain of Histone deacetylase 3 (O15379 whole entry): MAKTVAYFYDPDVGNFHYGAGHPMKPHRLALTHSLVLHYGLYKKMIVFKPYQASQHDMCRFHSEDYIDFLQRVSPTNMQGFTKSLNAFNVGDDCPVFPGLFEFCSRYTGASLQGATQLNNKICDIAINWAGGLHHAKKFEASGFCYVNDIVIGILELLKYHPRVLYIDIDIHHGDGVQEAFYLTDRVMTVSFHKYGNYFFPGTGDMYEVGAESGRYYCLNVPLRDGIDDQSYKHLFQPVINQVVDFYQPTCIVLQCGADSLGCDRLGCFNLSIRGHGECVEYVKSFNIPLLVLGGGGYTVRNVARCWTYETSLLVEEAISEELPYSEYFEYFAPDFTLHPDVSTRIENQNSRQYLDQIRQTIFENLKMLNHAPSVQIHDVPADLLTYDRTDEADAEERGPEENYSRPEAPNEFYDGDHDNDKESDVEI

HepG2 [3] = test: Antiproliferative activity against human HepG2 cells; type: functional, cell-based
HT-29 [4] = test: Antiproliferative activity against human HT-29 cells; type: functional, cell-based
A549 [5] = test: Antiproliferative activity against human A549 cells; type: functional, cell-based
EA.hy 926 = test: Antiproliferative activity against human EA.hy 926 cells assessed as reduction in cell growth incubated for 72 hrs by MTT assay; type: functional, cell-based; conditions: EA.hy 926, 72 h
A-431 = test: Antiproliferative activity against human A-431 cells assessed as reduction in cell growth incubated for 72 hrs by SRB assay; type: functional, cell-based; conditions: A-431, 72 h
DU-145 = test: Antiproliferative activity against human DU-145 cells assessed as reduction in cell growth incubated for 72 hrs by SRB assay; type: functional, cell-based; conditions: DU-145, 72 h
NCI-H460 = test: Antiproliferative activity against human NCI-H460 cells assessed as reduction in cell growth incubated for 72 hrs by SRB assay; type: functional, cell-based; conditions: NCI-H460, 72 h
HepG2 [6] = test: Antiproliferative activity against human HepG2 cells assessed as reduction in cell growth incubated for 72 hrs by SRB assay; type: functional, cell-based; conditions: HepG2, 72 h
A2780 = test: Antiproliferative activity against human A2780 cells assessed as reduction in cell growth incubated for 72 hrs by SRB assay; type: functional, cell-based; conditions: A2780, 72 h
[7] = Inhibition of human recombinant HDAC2 using fluorogenic peptide p53 (379 to 382 residues) RHKK(Ac) as substrate by fluorescence based analysis
HeLa = test: Antiproliferative activity against human Hela cells assessed as reduction in cell growth incubated for 72 hrs by SRB assay; type: functional, cell-based
CAPAN-1 = test: Antiproliferative activity against human CAPAN-1 cells assessed as reduction in cell growth incubated for 72 hrs by SRB assay; type: functional, cell-based; conditions: CAPAN-1, 72 h
HT-29 [8] = test: Antiproliferative activity against human HT-29 cells assessed as reduction in cell growth incubated for 72 hrs by SRB assay; type: functional, cell-based; conditions: HT-29, 72 h
[9] = target: Polyamine deacetylase HDAC10 (Homo sapiens, UniProt Q969S8); test: Inhibition of human recombinant HDAC10 using fluorogenic peptide p53 (379 to 382 residues) RHKK(Ac) as substrate by fluorescence based analysis
Histone deacetylase 1 [10] = target: T2, Histone deacetylase 1; test: Inhibition of human recombinant HDAC1 using fluorogenic peptide p53 (379 to 382 residues) RHKK(Ac) as substrate by fluorescence based analysis
[11] = Cytotoxicity against human MM472 cells assessed as reduction in cell viability incubated for 72 hrs by SRB assay; type: functional, cell-based; conditions: MM472, 72 h
[12] = Antiproliferative activity against human Doxorubicin-resistant A2780-DX cells assessed as reduction in cell growth incubated for 72 hrs by SRB assay; type: functional, cell-based
[13] = target: T1, Protein deacetylase HDAC6; test: Inhibition of human recombinant HDAC6 using fluorogenic peptide p53 (379 to 382 residues) RHKK(Ac) as substrate by fluorescence based analysis
Histone deacetylase 8 = Histone deacetylase 8 (Homo sapiens, UniProt Q9BY41); test: Inhibition of HDAC8 (unknown origin)
Chain of Histone deacetylase 8 (Q9BY41 whole entry): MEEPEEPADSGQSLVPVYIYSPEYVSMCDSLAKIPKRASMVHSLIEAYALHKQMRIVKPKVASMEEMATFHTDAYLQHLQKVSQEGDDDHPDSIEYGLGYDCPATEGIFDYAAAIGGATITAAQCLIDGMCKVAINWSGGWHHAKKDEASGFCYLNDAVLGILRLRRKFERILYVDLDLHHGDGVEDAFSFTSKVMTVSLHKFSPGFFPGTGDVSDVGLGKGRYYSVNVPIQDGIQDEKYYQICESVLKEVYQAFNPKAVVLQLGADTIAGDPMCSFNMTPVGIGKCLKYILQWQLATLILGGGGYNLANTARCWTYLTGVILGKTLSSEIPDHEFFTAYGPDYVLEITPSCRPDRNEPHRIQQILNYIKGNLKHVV

Tubulin = test: Inhibition of tubulin polymerization (unknown origin); type: protein-complex assay, Homo sapiens
[14] = Metabolic stability in human liver microsomes assessed as half life for 30 mins by LC-MS/MS analysis; type: ADME, Microsome
[15] = Metabolic stability in human liver microsomes assessed as intrinsic clearance measured for 30 mins by LC-MS/MS analysis; type: ADME, Microsome; conditions: read-out: CLH
[16] = target: T3, Poly [ADP-ribose] polymerase 1 (Homo sapiens, UniProt P09874); test: Inhibition of PARP-1 (unknown origin)
T3 sequence (P09874 whole entry): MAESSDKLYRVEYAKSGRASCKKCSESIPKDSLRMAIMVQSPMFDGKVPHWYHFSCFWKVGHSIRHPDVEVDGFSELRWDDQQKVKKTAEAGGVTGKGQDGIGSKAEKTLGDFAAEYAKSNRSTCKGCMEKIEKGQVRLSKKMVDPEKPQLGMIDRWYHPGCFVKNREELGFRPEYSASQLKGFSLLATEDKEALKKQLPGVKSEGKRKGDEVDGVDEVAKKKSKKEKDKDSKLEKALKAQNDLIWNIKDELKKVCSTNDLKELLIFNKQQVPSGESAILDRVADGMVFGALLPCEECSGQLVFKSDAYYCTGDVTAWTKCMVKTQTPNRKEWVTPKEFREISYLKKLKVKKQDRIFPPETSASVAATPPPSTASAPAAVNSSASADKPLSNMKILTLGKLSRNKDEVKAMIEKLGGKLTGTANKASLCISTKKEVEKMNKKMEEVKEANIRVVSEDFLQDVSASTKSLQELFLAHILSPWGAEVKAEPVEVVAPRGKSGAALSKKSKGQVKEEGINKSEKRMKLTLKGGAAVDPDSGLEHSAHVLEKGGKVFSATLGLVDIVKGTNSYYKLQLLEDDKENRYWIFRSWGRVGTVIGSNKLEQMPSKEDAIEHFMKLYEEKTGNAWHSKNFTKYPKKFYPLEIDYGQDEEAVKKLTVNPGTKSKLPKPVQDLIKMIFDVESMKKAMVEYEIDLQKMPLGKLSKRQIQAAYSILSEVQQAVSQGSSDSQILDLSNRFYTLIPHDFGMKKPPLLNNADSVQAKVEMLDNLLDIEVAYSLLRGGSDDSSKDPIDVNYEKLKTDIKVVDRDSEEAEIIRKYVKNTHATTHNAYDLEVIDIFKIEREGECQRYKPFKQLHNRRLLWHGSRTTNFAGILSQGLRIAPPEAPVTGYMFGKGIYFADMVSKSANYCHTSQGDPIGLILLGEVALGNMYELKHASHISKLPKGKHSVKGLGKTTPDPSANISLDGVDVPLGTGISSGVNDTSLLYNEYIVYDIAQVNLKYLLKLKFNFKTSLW

HCC1937 = test: Antiproliferative activity against human HCC1937 cells assessed as reduction in cell viability incubated for 48 hrs by MTT assay; type: functional, cell-based; conditions: HCC1937, 48 h
K562 = test: Antiproliferative activity against human K562 cells assessed as reduction in cell viability incubated for 48 hrs by MTT assay; type: functional, cell-based; conditions: K562, 48 h
MCF7 = test: Antiproliferative activity against human MCF7 cells assessed as reduction in cell viability incubated for 48 hrs by MTT assay; type: functional, cell-based; conditions: MCF7, 48 h
HCT-116 [17] = test: Antiproliferative activity against human HCT-116 cells assessed as reduction in cell viability incubated for 48 hrs by MTT assay; type: functional, cell-based; conditions: HCT-116, 48 h
MGC-803 = test: Antiproliferative activity against human MGC-803 cells by MTT assay; type: functional, cell-based
DNA topoisomerase 1 = DNA topoisomerase 1 (Homo sapiens, UniProt P11387); test: Inhibition of Topoisomerase 1 (unknown origin)
Chain of DNA topoisomerase 1 (P11387 whole entry): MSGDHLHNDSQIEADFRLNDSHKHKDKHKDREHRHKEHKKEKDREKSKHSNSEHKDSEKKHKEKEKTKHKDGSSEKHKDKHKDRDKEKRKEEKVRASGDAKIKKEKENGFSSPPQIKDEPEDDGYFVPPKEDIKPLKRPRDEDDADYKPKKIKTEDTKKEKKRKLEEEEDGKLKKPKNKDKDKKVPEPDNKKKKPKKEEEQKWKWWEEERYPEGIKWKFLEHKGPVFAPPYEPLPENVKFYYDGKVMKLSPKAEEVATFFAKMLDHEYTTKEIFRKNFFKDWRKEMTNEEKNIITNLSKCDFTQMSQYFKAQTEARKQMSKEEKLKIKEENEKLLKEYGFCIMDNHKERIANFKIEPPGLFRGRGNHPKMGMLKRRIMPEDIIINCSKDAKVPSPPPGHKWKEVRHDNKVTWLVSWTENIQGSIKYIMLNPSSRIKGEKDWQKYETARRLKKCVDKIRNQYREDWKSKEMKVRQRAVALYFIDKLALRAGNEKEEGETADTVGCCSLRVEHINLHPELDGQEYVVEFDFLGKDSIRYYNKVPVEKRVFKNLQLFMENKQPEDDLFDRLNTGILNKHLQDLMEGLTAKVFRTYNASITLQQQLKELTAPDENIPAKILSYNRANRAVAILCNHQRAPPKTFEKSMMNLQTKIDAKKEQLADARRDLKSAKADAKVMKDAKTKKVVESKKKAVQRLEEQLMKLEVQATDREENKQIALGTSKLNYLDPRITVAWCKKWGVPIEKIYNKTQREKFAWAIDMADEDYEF

Bel-7402 = test: Antitumor activity against human Bel-7402 cells xenografted in nude mouse model assessed as tumor growth inhibition at 50 mg/kg, IG administered for 21 days relative to control; conditions: Bel-7402, po, 504 h, read-out: TGI
HepG2 [18] = test: Antiproliferative activity against human HepG2 cells assessed as reduction in cell viability incubated for 48 hrs by MTT assay; conditions: HepG2, 48 h
SNU-475 = test: Antiproliferative activity against human SNU-475 cells assessed as reduction in cell viability incubated for 48 hrs by MTT assay; conditions: SNU-475, 48 h
A549 [19] = test: Antiproliferative activity against human A549 cells assessed as reduction in cell viability incubated for 3 days by Cell-titer glo reagent based assay; type: functional; conditions: A549, 72 h
[20] = Half life in BALB/c mouse at 50 mg/kg, po by LC-MS/MS analysis; type: ADME, organism-based; conditions: in vivo
[21] = target: T3, Poly [ADP-ribose] polymerase 1; test: Inhibition of PARP1 (unknown origin)
[22] = Oral bioavailability in BALB/c mouse at 50 mg/kg by LC-MS/MS analysis; type: ADME, organism-based; conditions: in vivo
HCT-116 [23] = test: Antiproliferative activity against human HCT-116 cells assessed as reduction in cell viability incubated for 3 days by Cell-titer glo reagent based assay; type: functional; conditions: HCT-116, 72 h

SMILES: Cn1c(CCCCCCC(=O)NO)nc2ccc(N(CCCl)CCCl)cc21
- pIC50 [1]: 7.14
- pIC50 (Histone deacetylase 1 [2]): 7.77
- pIC50 (Histone deacetylase 2): 8.00
- pIC50 (Histone deacetylase 4): 8.19
- pIC50 (Histone deacetylase 5): 6.97
- pIC50 (Histone deacetylase 3): 7.60

SMILES: COc1ccc2c3ccnc(C)c3n(CC3CCN(c4ncc(C(=O)NO)cn4)CC3)c2c1
- pIC50 (HepG2 [3]): 5.54
- pIC50 (HT-29 [4]): 5.73
- pIC50 (A549 [5]): 5.22

SMILES: COc1cc(/C=C/C(=O)c2ccc(NC(=O)c3ccccc3CN3C(=O)c4ccccc4C3=O)cc2)cc(OC)c1OC
- pIC50 (Histone deacetylase 1 [2]): 6.66
- pIC50 (Histone deacetylase 2): 6.37

SMILES: COc1ccc(-c2ocnc2-c2cc(Br)c(OC)c(OC)c2)cc1OCCCCCC(=O)NO
- pIC50 (EA.hy 926): 6.39

SMILES: CC[C@]1(O)C(=O)OCc2c1cc1n(c2=O)Cc2c-1nc1ccc(O)cc1c2/C=N/OCCCCCC(=O)NO
- pIC50 (A-431): 7.52
- pIC50 (DU-145): 7.52
- pIC50 (NCI-H460): 7.52
- pIC50 (HepG2 [6]): 7.52
- pIC50 (A2780): 7.52
- pIC50 [7]: 5.03
- pIC50 (HeLa): 7.52
- pIC50 (CAPAN-1): 7.52
- pIC50 (HT-29 [8]): 7.52
- pIC50 [9]: 5.65
- pIC50 (Histone deacetylase 1 [10]): 5.28
- pIC50 [11]: 7.32
- pIC50 [12]: 7.52
- pIC50 [13]: 5.81

SMILES: O=C(Cc1ccc(/C=C/C(=O)c2ncc[nH]2)cc1)Nc1ccc(F)cc1
- pIC50 [1]: 5.70
- pIC50 (Histone deacetylase 8): 5.85
- pIC50 (Histone deacetylase 1 [2]): 5.74
- pIC50 (Histone deacetylase 2): 5.68
- pIC50 (Histone deacetylase 3): 5.74

SMILES: Cc1ccc(Cn2cc(CSC(=S)N3CCN(C(=O)OC(C)(C)C)CC3)nn2)cc1
- pIC50 (Tubulin): 5.90

SMILES: COc1ccc(-c2cccc(-c3cc(OC)c(OC)c(OC)c3)n2)cc1C(=O)NO
- half-life [14]: 0.913 h
- CLint scaled [15]: 22.8 mL/min/kg
- pIC50 (Tubulin): 5.62

SMILES: O=C(c1cc(Cc2n[nH]c(=O)c3ccccc23)ccc1F)N1CCN(c2c3ccccc3nc3ccccc23)CC1
- pIC50 [16]: 4.93
- pIC50 (HCC1937): 5.10
- pIC50 (K562): 5.40
- pIC50 (MCF7): 4.86
- pIC50 (HCT-116 [17]): 4.89

SMILES: COc1ccc(CN(C(=O)Cc2ccc(C(=O)Nc3ccccc3N)cc2)c2cc(OC)c(OC)c(OC)c2)cc1O
- pIC50 [1]: 4.11
- pIC50 (MGC-803): 7.41
- pIC50 (Histone deacetylase 2): 5.52
- pIC50 (Histone deacetylase 3): 5.28

SMILES: CCc1c2c(nc3ccc(O)cc13)-c1cc3c(c(=O)n1C2)COC(=O)[C@]3(O)CC [7-ETHYL-10-HYDROXYCAMPTOTHECIN]
- pIC50 (DNA topoisomerase 1): 6.11

SMILES: COc1ccc(S(=O)(=O)N(CCSC(=S)N2CCN(C)CC2)c2cc(OC)c(OC)c(OC)c2)cc1
- inhibition in vivo at 50 mg/kg (Bel-7402): 43%
- pIC50 (HepG2 [18]): 6.24
- pIC50 (SNU-475): 6.14

SMILES: CCOC(=O)Nc1nc2ccc(-c3cc(Cc4n[nH]c(=O)c5ccccc45)ccc3F)cc2[nH]1
- pIC50 (A549 [19]): 6.85
- half-life [20]: 3.28 h
- pIC50 [21]: 8.15
- bioavailability [22]: 31%
- pIC50 (Tubulin): 6.00
- pIC50 (HCT-116 [23]): 6.45
